In PubChem BioAssay AID248 (DTP/NCI, 2004) one finds T/C data, which are given here for 17 compounds.

Values joined by “and” are separate entries in the source; they are usually repeats but may differ in a detail not shown here. Equal values may be shown once. Toxic doses and inconclusive results are not listed.

This experiment has as its system L1210 leukemia ip in BDF1 mice, survival T/C. The experiment can be described thus: NCI In Vivo Anticancer Drug Screen. Data for tumor model L1210 Leukemia (intraperitoneal) in B6D2F1 (BDF1) mice. Conditions: endpoint: mean survival time, higher = longer survival. An outline of the steps:
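Tumor was transplanted into mice, which were then dosed with test compound or vehicle alone. Survival was recorded for each group, and the treated figure was expressed relative to the control figure.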

[1] abbreviates: dose: 100.0 mg/kg/injection, schedule: Q01DX001 (ip), vehicle: carboxymethylcellulose (CMC).
[2] abbreviates: dose: 100.0 mg/kg/injection, schedule: Q01DX009 (ip), vehicle: saline with Tween-80.
[3] abbreviates: dose: 100.0 mg/kg/injection, schedule: Q04DX003 (ip), vehicle: saline with Tween-80.
Where [4] appears, read: dose: 200.0 mg/kg/injection, schedule: Q01DX009 (ip), vehicle: saline with Tween-80.
Where [5] appears, read: dose: 200.0 mg/kg/injection, schedule: Q04DX003 (ip), vehicle: saline with Tween-80.
Setting [6] is: dose: 400.0 mg/kg/injection, schedule: Q01DX001 (ip), vehicle: carboxymethylcellulose (CMC).
Setting [7] is: dose: 400.0 mg/kg/injection, schedule: Q01DX009 (ip), vehicle: saline with Tween-80.
[8] abbreviates: dose: 400.0 mg/kg/injection, schedule: Q04DX003 (ip), vehicle: saline with Tween-80.
Where [9] appears, read: dose: 100.0 mg/kg/injection, schedule: Q01DX009 (ip), vehicle: saline.
[10] abbreviates: dose: 200.0 mg/kg/injection, schedule: Q01DX009 (ip), vehicle: saline.
Setting [11] is: dose: 100.0 mg/kg/injection, schedule: Q04DX002 (ip), vehicle: Klucel (hydroxypropylcellulose) (HPC).
Setting [12] is: dose: 200.0 mg/kg/injection, schedule: Q04DX002 (ip), vehicle: Klucel (hydroxypropylcellulose) (HPC).
The mark [13] stands for this setting: dose: 400.0 mg/kg/injection, schedule: Q04DX002 (ip), vehicle: Klucel (hydroxypropylcellulose) (HPC).
The mark [14] stands for this setting: dose: 50.0 mg/kg/injection, schedule: Q01DX009 (ip), vehicle: saline with Tween-80.

In the case of `NC1=NC(=O)/C(=C/c2ccco2)S1`, the T/C runs as follows: (dose: 75.0 mg/kg/injection, schedule: Q01DX001 (ip), vehicle: saline) 98 % of control; (dose: 150.0 mg/kg/injection, schedule: Q01DX001 (ip), vehicle: saline) 93 % of control; (dose: 300.0 mg/kg/injection, schedule: Q01DX001 (ip), vehicle: saline) 90 % of control.
With `CCC(C)C(NC(=O)C(CC(C)C)N(C)C)C(=O)N1CCC2Oc3ccc(cc3)/C=C\NC(=O)C(Cc3ccccc3)NC(=O)C21` (stereo unspecified), the T/C runs as follows: (dose: 100.0 mg/kg/injection, schedule: Q04DX003 (ip), vehicle: Klucel (hydroxypropylcellulose) (HPC)) 96 % of control; (dose: 200.0 mg/kg/injection, schedule: Q04DX003 (ip), vehicle: Klucel (hydroxypropylcellulose) (HPC)) 108 % of control; (dose: 400.0 mg/kg/injection, schedule: Q04DX003 (ip), vehicle: Klucel (hydroxypropylcellulose) (HPC)) 94 % of control.
In the case of `COC1CC(N=[N+]=[N-])C(OS(C)(=O)=O)C(C)O1` (stereo unspecified), the T/C under setting [1] was 98 % of control; the T/C under setting [2] is 109 % of control; the T/C under setting [3] is 107 % of control; the T/C (dose: 200.0 mg/kg/injection, schedule: Q01DX001 (ip), vehicle: carboxymethylcellulose (CMC)) was 106 % of control; the T/C under setting [4] is 94 % of control; the T/C under setting [5] is 107 % of control. The T/C under setting [6] was 98 % of control, the T/C under setting [7] is 109 % of control and the T/C under setting [8] was 108 % of control.
Regarding `CC1C(=O)OC2CC[N+]3(C(C)C)CC=C(COC(=O)C(C)(O)C1(C)O)C23` (stereo unspecified), the T/C by setting is: (dose: 50.0 mg/kg/injection, schedule: Q01DX009 (ip), vehicle: saline) 100 % of control; under setting [9], 106 % of control; under setting [10], 106 % of control.
Take `Cc1ccc(NCC2(/N=C/c3ccccc3)OC(CO)C(O)C2O)cc1` (stereo unspecified): the T/C runs as follows: under setting [11], 97 % of control; under setting [12], 102 % of control; under setting [13], 102 % of control.
In the case of `BrCC(CBr)(CBr)CBr`, the T/C under setting [9] was 103 % of control; the T/C (dose: 100.0 mg/kg/injection, schedule: Q04DX003 (ip), vehicle: saline) was 93 % of control; the T/C under setting [10] is 97 % of control; the T/C (dose: 200.0 mg/kg/injection, schedule: Q04DX003 (ip), vehicle: saline) was 100 % of control; the T/C (dose: 400.0 mg/kg/injection, schedule: Q04DX003 (ip), vehicle: saline) was 101 % of control.
As to `CCOC(=O)/C=C(/CC(=O)OCC)Nc1ccc(C)cc1`, the T/C reads like this: (dose: 100.0 mg/kg/injection, schedule: Q01DX001 (ip), vehicle: saline) 89 % of control; (dose: 200.0 mg/kg/injection, schedule: Q01DX001 (ip), vehicle: saline) 99 % of control; (dose: 400.0 mg/kg/injection, schedule: Q01DX001 (ip), vehicle: saline) 97 % of control.
On to `CC(C)OC(=S)SCC(=O)c1ccc(-c2ccccc2)cc1`, for which the T/C under setting [11] is 96 % of control, the T/C under setting [12] is 92 % of control and the T/C under setting [13] is 96 % of control.
Consider `COC(=O)c1ccc(OC(=O)Nc2ccccc2F)cc1`, for which the T/C was 106 % of control (dose: 25.0 mg/kg/injection, schedule: Q01DX009 (ip), vehicle: saline with Tween-80); 119 % of control under setting [14]; 95 % of control and 108 % of control under setting [2].
As for `CC1c2ccccc2OC(=O)C1C(=O)O` (stereo unspecified), the T/C (dose: 88.8 mg/kg/injection, schedule: Q01DX001 (ip), vehicle: carboxymethylcellulose (CMC)) was 94 % of control; the T/C under setting [1] is 94 % of control; the T/C (dose: 133.4 mg/kg/injection, schedule: Q01DX001 (ip), vehicle: carboxymethylcellulose (CMC)) is 94 % of control; the T/C (dose: 300.0 mg/kg/injection, schedule: Q01DX001 (ip), vehicle: carboxymethylcellulose (CMC)) is 100 % of control; the T/C under setting [6] was 94 % of control.
Take `CCCCCC(Oc1ccc(Cl)cc1Cl)C(=O)O` (stereo unspecified): the T/C is 100 % of control under setting [11] and 97 % of control under setting [12].
As to `CC(C)=CCC/C(C)=C/CNc1ncnc2nc[nH]c12`, the T/C under setting [14] is 103 % of control; the T/C under setting [2] was 100 % of control; the T/C (dose: 100.0 mg/kg/injection, schedule: Q04DX003 (ip), vehicle: acetone) was 94 % of control; the T/C under setting [3] was 94 % of control; the T/C under setting [4] was 100 % of control; the T/C (dose: 200.0 mg/kg/injection, schedule: Q04DX003 (ip), vehicle: acetone) was 101 % of control. The T/C by setting is: under setting [5], 95 % of control; under setting [7], 105 % of control; under setting [8], 90 % of control.
For the compound `O=C1C(Br)C(Br)C(=O)N1c1ccccc1F` (stereo unspecified), the T/C runs as follows: (dose: 12.5 mg/kg/injection, schedule: Q01DX009 (ip), vehicle: other) 96 % of control; (dose: 25.0 mg/kg/injection, schedule: Q01DX009 (ip), vehicle: other) 92 % of control.
For the compound `O=C1Oc2ccccc2C1c1ccccc1` (stereo unspecified), the T/C runs as follows: (dose: 87.5 mg/kg/injection, schedule: Q01DX009 (ip), vehicle: other) 103 % of control; (dose: 175.0 mg/kg/injection, schedule: Q01DX009 (ip), vehicle: other) 108 % of control; (dose: 350.0 mg/kg/injection, schedule: Q01DX009 (ip), vehicle: other) 106 % of control.
`COc1cc2ccc3c(c2cc1OC)CN1CCc2cc4c(cc2C1C3)OCO4` (stereo unspecified): the T/C by setting is: (dose: 100.0 mg/kg/injection, schedule: Q01DX009 (ip), vehicle: saline sonified) 93 % of control; (dose: 100.0 mg/kg/injection, schedule: Q04DX003 (ip), vehicle: saline sonified) 109 % of control; (dose: 200.0 mg/kg/injection, schedule: Q01DX009 (ip), vehicle: saline sonified) 109 % of control; (dose: 200.0 mg/kg/injection, schedule: Q04DX003 (ip), vehicle: saline sonified) 98 % of control; (dose: 400.0 mg/kg/injection, schedule: Q01DX009 (ip), vehicle: saline sonified) 94 % of control; (dose: 400.0 mg/kg/injection, schedule: Q04DX003 (ip), vehicle: saline sonified) 101 % of control.
Consider `CN(N=O)C(=O)NC(=O)NCCCl`, for which the T/C runs as follows: (dose: 4.5 mg/kg/injection, schedule: Q01DX001 (ip), vehicle: carboxymethylcellulose (CMC)) 118 % of control; (dose: 9.0 mg/kg/injection, schedule: Q01DX001 (ip), vehicle: carboxymethylcellulose (CMC)) 115 % of control; (dose: 26.0 mg/kg/injection, schedule: Q01DX001 (ip), vehicle: carboxymethylcellulose (CMC)) 124 % of control.
`CCOC(=O)C1(N)CCCC1`: the T/C (dose: 15.0 mg/kg/injection, schedule: Q01DX Z (ip), vehicle: carboxymethylcellulose (CMC)) was 105 % of control; the T/C (dose: 23.0 mg/kg/injection, schedule: Q01DX Z (ip), vehicle: carboxymethylcellulose (CMC)) was 108 % of control; the T/C (dose: 31.3 mg/kg/injection, schedule: Q01DX015 (ip), vehicle: saline) was 96 % of control; the T/C (dose: 35.0 mg/kg/injection, schedule: Q01DX Z (ip), vehicle: carboxymethylcellulose (CMC)) was 117 % of control; the T/C (dose: 62.5 mg/kg/injection, schedule: Q01DX015 (ip), vehicle: saline) was 124 % of control; the T/C (dose: 83.0 mg/kg/injection, schedule: Q01DX Z (ip), vehicle: carboxymethylcellulose (CMC)) is 122 % of control. Also, the T/C was 150 % of control (dose: 125.0 mg/kg/injection, schedule: Q01DX015 (ip), vehicle: saline); 122 % of control (dose: 125.0 mg/kg/injection, schedule: Q01DX Z (ip), vehicle: carboxymethylcellulose (CMC)); 110 % of control (dose: 188.0 mg/kg/injection, schedule: Q01DX Z (ip), vehicle: carboxymethylcellulose (CMC)); 157 % of control (dose: 250.0 mg/kg/injection, schedule: Q01DX015 (ip), vehicle: saline); 118 % of control (dose: 500.0 mg/kg/injection, schedule: Q01DX015 (ip), vehicle: saline).
